The record followed here is a melting point compilation (Tetko et al.; mined from patent text by program, amines drawn as free bases though some values may be those of a salt).

`CC1CC(=O)N(CCO)N=C1c1ccc2c(c1)CCC(=O)N2C` (centres undefined) had a melting point of 171 to 173 °C.
As to `Cc1cc(C)cc(P(c2cc(C)cc(C)c2)c2cccc3c2-c2c(cccc2P(c2cc(C)cc(C)c2)c2cc(C)cc(C)c2)OCCCO3)c1`, the melting point was in the range of 232 to 234 °C.
On to `CCCCCCCCCCCCCCCCC(CO)OC` (centres undefined), for which the melting point lay in the range of 36 to 38 °C.
On to `COc1cc(/C(C#N)=C\c2ccc(Cl)c(N)c2)cc(OC)c1OC`, for which the melting point was 150 to 151 °C.
Turning to `CC1CC2=CC(=O)CCC2C2C(F)CC3(C)C(O)CCC3C12` (centres undefined), the melting point was 127 °C.
The compound `COc1ccc2cc3c(c(-c4ccc(C)cc4)c2c1)C(=O)NC3=O` showed a melting point of 298 to 301 °C.
In the case of `O=C(O)c1cc(Cl)c2cccnc2c1O` it was 285 to 287 °C; in that of `CC(=O)c1ccccc1-c1cccc(-n2cnc(-c3nc(C)no3)c2)c1`, 144 to 146 °C; in that of `C=CCONC(=O)c1c([Si](C)(C)C)ccc(Cl)c1Cl`, 92 to 94 °C.
Take `Cc1[nH]c(=O)ccc1-c1ccc(-n2ccnc2)cc1`: the melting point fell in the range of 310 to 314 °C.
`CC(C)CCCC(C)C1CCC2C3CC=C4CC(OCCO)CCC4(C)C3CCC12C` (centres undefined) showed a melting point of 92 to 95 °C.
As to `[N-]=[N+]=NCC(O)(Cn1cncn1)c1ccc(Cl)cc1Cl` (centres undefined), the melting point was 117 to 119 °C.
The same measure for `CC(C)C(C)(NC(=O)c1nc2ccc(OC(F)F)cc2cc1C(=O)O)C(N)=O` (centres undefined): 194 to 196 °C; for `O=C(O)Cn1nnc(-c2ccc3c(c2)S(=O)(=O)c2ccccc2C3=O)n1`: 194 to 195 °C.
`Cc1cscc1NC(=S)NC1CCCCC1N` (centres undefined) came in with a melting point of 205 to 210 °C.
`CNS(=O)(=O)c1ccc(-c2coc3ccc(-c4nnc(C)o4)cc23)cc1` yielded a melting point of 203 to 204 °C.
In the case of `COC(=O)Cn1c(=O)c(=O)[nH]c2cc(N)c(Cl)cc21` it was over 260 °C; in that of `CCc1nn(C2CCCC2)c2cc(C(=O)NCCC(=O)NOCc3ccccc3)ccc12`, 134 to 136 °C; in that of `N#CC(C(=O)c1ccncc1)c1ccc(F)cc1` (centres undefined), 230 to 232 °C.
`O=C(NC(=O)c1ccc(C(F)(F)F)cc1)Nc1ccc(Cl)cc1` displayed a melting point of 260 °C.
In turn, `O=C(O)C(Cl)=C(Cl)C(O)=NCCCc1ccc(Cl)cc1` showed a melting point of 72 to 73 °C.
Consider `COc1ccc(N2C(=O)Cc3ccccc32)cc1`, for which the melting point fell in the range of 115 to 117 °C.
On to `CC(=O)Oc1ccc(-c2cnc(N)c(Cc3ccccc3)n2)cc1`, for which the melting point was in the range of 184 to 186 °C.
As to `CON(Cc1ccccc1C)C(=O)C1=C(O)C(=O)N(C)C1`, the melting point lay in the range of 153 to 154 °C.
In turn, `COc1ccccc1N1CCN(Cc2ccccc2C(c2ccc(O)cc2)c2ccc(O)cc2)CC1` displayed a melting point of 175 to 178 °C.
`CCCSc1cc(C(=O)CCC(=O)c2cc(OC)c(OC)c(OC)c2)cc(OC)c1OCc1ccccc1` displayed a melting point of 114 to 115 °C.
The same measure for `CC1(C)OC(=C(C#N)C#N)C(C#N)=C1c1ccc(Br)cc1`: 235 °C.
Consider `CCCCCN(Cc1ccc(-c2ccccc2S(=O)(=O)NC(C)(C)C)cc1)C(=O)Cl`, for which the melting point was 125 to 126 °C.
For `CCCc1c(OCCCCCCC2(C)CC(=O)c3ccc(OCC(=O)O)c(CCC)c3O2)ccc(C(C)=O)c1O` (centres undefined), the melting point lay in the range of 120 to 125 °C.
`O=C1c2ccccc2C(=O)c2sc(-c3ccccc3)nc21` had a melting point of 249 °C.
In the case of `CCCCNC(=O)c1cccc(-c2ccnc3c(C(=O)c4cccs4)cnn23)c1` it was 172 to 174 °C; in that of `Cc1ccccc1-c1coc2cc(O)cc(Cl)c2c1=O`, over 290 °C.
`COc1nc(C(F)(F)C(F)(F)F)c(F)c(=O)n1-c1cc(OC(C)C)c(Cl)cc1F` showed a melting point of 69 to 71 °C.
`O=P(OC1=Nc2ccc(Cl)cc2C(c2ccccc2Cl)=NC1)(N1CCOCC1)N1CCOCC1` had a melting point of 185 to 187 °C.
`CCCCc1nc2c(N)nc3ccccc3c2n1CC(C)(C)C(N)=O`: the melting point is 231 to 233 °C.
As for `CC(=O)N[C@H]1CC[C@H](CCN2CCN(c3nccc4ccoc34)CC2)CC1`, the melting point was determined as 157 °C.
Compound `Cc1nc2c(N)nc3ccccc3c2n1CCOCCNS(C)(=O)=O` displayed a melting point of 152 to 155 °C.
On to `CCCCCCC(NS(=O)(=O)c1ccc(Cl)cc1)C(=O)Nc1ccc(CC(=O)O)cc1` (racemic), for which the melting point was 192 to 193 °C.
`COCCN1CCSc2ccc(Nc3ncc(Cl)c(N[C@@H]4CCCC[C@H]4NS(C)(=O)=O)n3)cc2C1` showed a melting point of 140 to 143 °C.
On to `CN(C)Cc1cc(C(=O)c2cccn2C)cc(C(C)(C)C)c1O`, for which the melting point amounted to 174 °C.
The same measure for `CN(C)c1nnc(Br)c(=O)[nH]1`: 261 to 262 °C; for `Oc1cnccc1CCCOc1cccnc1Oc1cccc(F)c1`: 68 to 70 °C.
`O=Cc1ccccc1-c1noc2cc(Cl)ccc12` registered a melting point of 116 to 117 °C.
In the case of `CC(C)(C)OC(=O)N[C@@H](CCCCNC[C@H](O)CCl)C(=O)OC(C)(C)C`, the melting point lay within 87 to 88 °C.
With `O=C(c1ccccc1C(F)(F)F)N1CCCN(CC2=Nc3cccc4c(=O)[nH]nc(c34)N2)CC1`, the melting point fell in the range of 140 to 142 °C.
For the compound `Nc1ccc2c(c1)C(=O)N(CCO)CCO2`, the melting point stood at 138 °C.
In the case of `COc1ccc(CCCC(=O)Nc2c(C)c(C)c3c(c2C)C(c2ccc(C)cc2)C(C)(C)O3)cc1` (centres undefined), the melting point lay within 166 to 167 °C.
The same measure for `CCCCc1nc2c(N)nc3ccccc3c2n1CC1(O)CCCCC1`: 218 to 220 °C; for `O=C(CCCCCCOc1ccc(O)cc1)C(F)(F)F`: 61 to 62 °C; for `Clc1ccc(CN2CC3(COc4cc5c(cc43)OCO5)c3ccccc32)o1` (centres undefined): 148 to 150 °C.
Turning to `CS(=O)CC(=NC1CCCCC1)c1cc2ccccc2cc1O` (centres undefined), the melting point lay in the range of 132 to 136 °C.
For `Cc1ccc(S(=O)(=O)N[C@@H]2COC(=O)[C@H]2Cc2ccccc2)cc1`, the melting point lay in the range of 108 to 109 °C.
In the case of `C=CC(C)(C)CC(NC(=O)c1ccc(Cl)cc1)NC(=N[N+](=O)[O-])Nc1cccnc1` (centres undefined) it was 186 °C; in that of `Cn1nc2nc(C(C)(C)C)[nH]c(=O)c2c1N`, 285 to 287 °C; in that of `O=C(Nc1ccc(N2CCCC2)nc1)c1cc2cc(C(F)(F)F)cnc2n1Cc1cccc(F)c1`, 234 to 236 °C.
In the case of `Nc1ccc(N2CCN(c3ccncc3)CC2)cc1` it was 204 to 208 °C.
The same measure for `CC(C)(OCc1cc(-c2ccc(Cl)cc2)no1)C(=O)N1CCCCC1`: 239 to 242 °C; for `COc1ccc(-c2nc3ccc(O)cc3[nH]2)cc1C12CC3CC(CC(C3)C1)C2`: 230 °C.
As for `COc1ccc(-c2nnn(-c3ccc(C(F)(F)F)cc3Cl)c2CO)cc1`, the melting point was 131 to 132 °C.
The same measure for `OC1CCN(c2nnc(Cl)c3ccccc23)CC1`: 139 to 142 °C; for `Cn1nc(C(F)(F)F)n(-c2ccc([N+](=O)[O-])cc2Cl)c1=S`: 152 to 155 °C.
`CC12CCC(=O)C(CSc3ccccc3)=C1CCC1C2CCC2(C)C1CCC2(C)O` (centres undefined) returned a melting point of 123 to 130 °C.
Consider `CC(C)(C)OC(=O)Nc1ccc(C#Cc2ccc(F)cc2F)cc1[N+](=O)[O-]`, for which the melting point fell in the range of 134 to 136 °C.
In turn, `CCOc1cc2ncc(C#N)c(N(C)c3ccccc3)c2cc1OCC` displayed a melting point of 153 to 155 °C.
As for `CNC(=O)N(O)C(C)C#Cc1ccc(Br)cc1` (centres undefined), the melting point lay in the range of 145 to 146 °C.
`COc1cc(N)c(-c2ncn[nH]2)cc1OC`: the melting point was in the range of 205 to 210 °C.
In turn, `OCC12CCCN(CCC1)C2` gave a melting point of 64 to 65.5 °C.
The compound `COC(=O)c1ccc(S(C)(=O)=O)c(C2=NOC(C)C2)c1Cl` (centres undefined) had a melting point of 130 to 135 °C.
`CC(=O)Nc1ccc(-c2c(Cl)c(CN3C(=O)CCC3=O)nc3sc4c(c23)CCNC4)cc1` returned a melting point of 300 °C.
In the case of `COc1cc(OC)c2cc(-c3cc(OC)c(OC)c(OC)c3)oc2c1`, the melting point is 131 to 132 °C.
The same measure for `Cc1nc(NC(=O)NC(=O)c2c(F)cccc2F)ccc1-c1ccccc1`: 206 to 208 °C; for `C=CCN(C(C)c1ccccc1)S(=O)(=O)c1ccc(O)cc1` (centres undefined): 128 to 129 °C.
The compound `NC(=O)C1(N2C(=O)c3ccccc3C2=O)CCCCC1` gave a melting point of 224 to 226 °C.
The compound `COc1cc(C(=O)NC2OCC(c3ccccc3)N3CCCCC23)cc(OC)c1OC` (centres undefined) registered a melting point of 126 to 128 °C.
For the compound `NC(=O)NN=Cc1ccc(N(c2ccccc2)c2ccccc2)cc1`, the melting point was 106 to 114 °C.
`COC(=O)c1c(Cc2ccc(C(=O)NC3CCC(O)CC3)cc2)c(=O)c2ccc(Cl)cc2n1-c1ccccc1` (centres undefined) returned a melting point of 151 to 152 °C.
The same measure for `N#Cc1cc(NC(=O)c2ccccc2F)ccc1-n1nc(C(F)(F)F)cc1C(F)(F)F`: 132 to 134 °C; for `CNc1nc(NC)c2ncn(COC(CO)CO)c2n1`: 198 °C.
For `CCOc1cc2c(cc1OCC)CCC(C(=O)N1CCN(C(=O)c3cc(OC)c(OC)c(OC)c3)CC1)=C2`, the melting point lay in the range of 127 to 129 °C.
The same measure for `O=C(OCC1c2ccccc2-c2ccc(S(=O)(=O)O)cc21)ON1C(=O)CCC1=O` (centres undefined): 140 to 146 °C; for `CC(=O)c1c(-c2ccc(F)cc2)sc(-c2ccncc2)c1C`: 116 to 118 °C.
In turn, `COC(=O)c1cscc1NC(=O)COc1ccc(Br)cn1` had a melting point of 138 to 140 °C.
`CN(Cc1ccccc1)c1nc(Cl)ncc1F` had a melting point of 47 to 49 °C.
In the case of `N#CCOC(=O)c1cc(SCc2ccccc2)c(Cc2ccccc2)c(S(N)(=O)=O)c1` it was 190 to 192 °C.
`CC(C)c1ccc(C(=O)NC(C)c2cccs2)cc1` (centres undefined) had a melting point of 100 °C.
In turn, `Cn1nnnc1CC(=S)NCCc1ccc(OCc2ccccc2)c(OCc2ccccc2)c1` returned a melting point of 110 °C.
Turning to `Cc1nnc(-c2ccc3occ(-c4cccc(C(F)(F)F)c4)c3c2)o1`, the melting point is 126 to 127 °C.
The same measure for `O=S(=O)(Cl)c1ccc(CCc2ccccc2)cc1`: 90 to 95 °C; for `Nc1cc(CS(=O)(=O)CCO)ccc1CS(=O)(=O)CCO`: 196 to 198 °C.

As a reminder, the melting point is the temperature of the solid-liquid transition.
